Assay results reported in PubChem BioAssay (NCI).
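Values below derive from 48-hour exposures of cells grown in 96-well plates, with endpoints linearly interpolated between the two concentrations bracketing the appropriate inhibition level. GI50 = concentration required for 50% inhibition of growth. TGI denotes the concentration required for complete inhibition of growth.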

Legend:
Experiment in all cases: NCI tumour cell line growth inhibition, 48 h
SR leukemia = test system: SR leukemia
NCI-H522 lung = test system: NCI-H522 lung
ACHN renal = test system: ACHN renal
LOX IMVI melanoma = test system: LOX IMVI melanoma
UACC-257 melanoma = test system: UACC-257 melanoma
BT-549 breast = test system: BT-549 breast
HOP-62 NSCLC = test system: HOP-62 NSCLC
SK-MEL-5 melanoma = test system: SK-MEL-5 melanoma
U251 CNS = test system: U251 CNS
NCI-H23 lung = test system: NCI-H23 lung

SMILES | TGI (SR leukemia) [µM] | TGI (NCI-H522 lung) [µM] | TGI (ACHN renal) [µM] | TGI (LOX IMVI melanoma) [µM] | TGI (UACC-257 melanoma) [µM] | TGI (BT-549 breast) [µM] | TGI (HOP-62 NSCLC) [µM] | TGI (SK-MEL-5 melanoma) [µM] | TGI (U251 CNS) [µM] | TGI (NCI-H23 lung) [µM] | GI50 (SR leukemia) [µM] | GI50 (NCI-H522 lung) [µM] | GI50 (ACHN renal) [µM] | GI50 (LOX IMVI melanoma) [µM] | GI50 (UACC-257 melanoma) [µM] | GI50 (BT-549 breast) [µM] | GI50 (HOP-62 NSCLC) [µM] | GI50 (SK-MEL-5 melanoma) [µM] | GI50 (U251 CNS) [µM] | GI50 (NCI-H23 lung) [µM]
O=NN(Cc1ccc(Cl)cc1)C(C(=O)O)c1ccccc1 (stereo unspecified) | > 100 | > 100 | > 100 | > 100 | > 100 | > 100 | > 100 | > 100 | > 100 | > 100 | – | – | – | – | – | – | – | – | – | –
CCOC(=O)CCc1cc(=O)oc2cc(O)cc(O)c12 | > 100 | > 100 | > 100 | > 100 | > 100 | > 100 | > 100 | > 100 | > 100 | > 100 | – | – | – | – | – | – | – | – | – | –
C[C@]12CC[C@H](O)CC1=CC[C@@H]1[C@@H]2CC[C@]2(C)C(c3cccnc3)=CC[C@@H]12 | > 100 | > 100 | > 100 | > 100 | > 100 | > 100 | > 100 | > 100 | > 100 | > 100 | 9.44 | 10.1 | 18.7 | > 100 | > 100 | 21.7 | 18.4 | 46.1 | 12.3 | 12.2
NCC(=O)NS(=O)(=O)OC[C@H]1O[C@@H](n2cnc3c(N)ncnc32)[C@H](O)[C@@H]1O | > 100 | 3.85 | 8.37 | 3.52 | – | 5.56 | 1.68 | 3.34 | 1.98 | 7.04 | 0.936 | 1.75 | 2.89 | 1.68 | – | 2.34 | 0.368 | 1.85 | 0.555 | 2.56
Cc1c(C(=O)N/N=C/c2ccc(Cl)cc2)nnn1-c1ccnc2c(C(F)(F)F)cccc12 | 12.3 | 35.2 | 3.95 | 3.18 | 6.91 | 52.3 | 17.3 | > 100 | – | 35.9 | 3.6 | 11.8 | 2.02 | 1.69 | 2.89 | 22.9 | 5.01 | 28.4 | – | 13.5
CN(C)CCC(=O)N1C/C(=C/c2ccccc2)C(=O)/C(=C\c2ccccc2)C1 | 8.63 | 0.977 | 5.5 | 1.27 | 4.61 | 2.81 | 16 | 3.9 | 2 | 6.76 | – | – | – | – | – | – | – | – | – | –
CC1CCC2(C(=O)O)CCC3(C)C(=CCC4C5(C)CC(O)C(O)C(C)(CO)C5C(O)CC43C)C2C1C (stereo unspecified) | > 63.1 | 33.9 | > 100 | 42.3 | > 100 | > 93.5 | > 83.7 | 87.2 | 45.5 | > 100 | – | – | – | – | – | – | – | – | – | –
CCCCC(=O)OCC1OC(n2cnc3c(=S)nc[nH]c32)C(OC(=O)CCCC)C1OC(=O)CCCC (stereo unspecified) | > 100 | 60.2 | > 100 | > 100 | > 100 | > 28.7 | > 100 | > 46.5 | > 100 | > 100 | 7.5 | 0.498 | 2.59 | 1.11 | 11.9 | 1.11 | 1.01 | 1.76 | 13.4 | 1.36
O=C(O)Cn1ccc(=O)c2ccc([N+](=O)[O-])cc21 | > 100 | > 100 | > 100 | – | > 100 | > 100 | > 100 | > 100 | > 100 | > 100 | – | – | – | – | – | – | – | – | – | –
O=C(CN1CCOCC1)Nc1ccc(Cn2nnc3c2C(=O)c2nnn(Cc4ccc(NC(=O)CN5CCOCC5)cc4)c2C3=O)cc1 | 3.97 | 0.587 | 20.2 | 1.35 | 0.624 | 2.83 | 3.46 | 0.877 | 0.942 | 3.61 | 0.516 | 0.191 | 4.01 | 0.275 | 0.253 | 1.46 | 1.64 | 0.249 | 0.305 | 0.802
COc1cccc(/C=N/NC(=O)c2ccccc2Nc2ccnc(C(F)(F)F)c2)c1O | 0.417 | 46.1 | > 100 | > 100 | 5.88 | 54.3 | > 53.6 | 5.65 | > 100 | 46.9 | 0.0477 | 0.521 | 0.279 | 0.264 | 0.346 | 0.567 | 0.431 | 0.418 | 0.449 | 0.904
O=C(O)CCCCC(CCSCc1ccccc1)SCc1ccccc1 (stereo unspecified) | > 100 | > 100 | > 100 | > 100 | > 100 | > 100 | > 100 | > 100 | > 100 | > 100 | 36.1 | 34.1 | 51.1 | 48.2 | > 67.1 | 50.8 | 68.6 | 53.5 | 47.9 | 33.5
Cc1ccc2c(c1)C(=O)/C(=C/c1ncc([N+](=O)[O-])n1C)O2 | 0.431 | 3.38 | 9.11 | 1.23 | 5.65 | 5.48 | 16.9 | 2.51 | 5.32 | 6.56 | 0.0379 | 1.5 | 0.489 | 0.404 | 1.98 | 1.95 | 5.79 | 1.14 | 1.93 | 2.28
O=C1c2c(c3c4ccccc4n(CCCCCCBr)c3c3[nH]c4ccccc4c23)C(=O)N1O | 4.71 | – | 11.1 | – | 6.04 | 6.53 | 9.06 | 2.8 | 13.3 | 7.09 | 1.23 | – | 2.61 | – | 2.74 | 1.83 | 2.52 | 1.48 | 3.47 | 2.23
COc1cnc2cc(C(=O)O)c3c([N+](=O)[O-])cccc3c2c1 | > 100 | > 100 | > 100 | > 100 | > 100 | > 100 | > 100 | > 100 | > 100 | > 100 | – | – | – | – | – | – | – | – | – | –
O=c1oc2ccc(F)cc2c(=O)n1-c1ccc(F)cc1F | > 100 | 12.3 | 8.63 | 22 | 7.15 | 7.4 | 8.05 | 3.69 | 38.8 | 19.7 | 3.69 | 2.61 | 2.71 | 3.79 | 2.29 | 2.53 | 2.39 | 1.76 | 3.26 | 2.96
Cc1cc(I)cc(CNCCCN2CCSCC2)c1O | 28.5 | 36.5 | 33.8 | 28.4 | 34.1 | 20.2 | 28.3 | 22.5 | 31 | 63.7 | 10.4 | 18.4 | 17.5 | 14.6 | 16.6 | 5.6 | 14.3 | 10.7 | 16.4 | 20.9
Nc1ccn(C2O[C@H](CO)[C@@H](O)[C@@H]2O)c(=O)n1 (stereo partly specified) | > 100 | > 100 | > 100 | > 100 | > 100 | > 100 | > 100 | > 100 | > 100 | > 100 | > 100 | 26.5 | 42.9 | – | – | – | 64.3 | – | – | 30.4
O=C1/C(=C/c2ccc(Cl)cc2Cl)N=C(c2ccccc2)N1Cc1ccco1 | > 100 | 48.4 | 28 | > 100 | > 100 | 87.9 | 38.9 | 80.9 | 40.5 | 81.6 | > 100 | 18.9 | 11.8 | 50.5 | 36.5 | 27.4 | 18.4 | 15.8 | 20.5 | 26.2
Cc1nn(CN2CCN(C)CC2)c(=S)n1/N=C/c1cccc2ccccc12 | 38.5 | 39.8 | 38.4 | 31.4 | 44.6 | 47.3 | 42.3 | 32.1 | – | 56.2 | 19 | 19 | 20.1 | 17.6 | 22.2 | 21.1 | 20 | 16.9 | – | 21.7
CC1OC(n2cc(F)c(=O)[nH]c2=O)CCC1O (stereo unspecified) | > 100 | > 100 | > 100 | > 100 | > 100 | > 100 | > 100 | > 56.2 | > 100 | > 100 | – | – | – | – | – | – | – | – | – | –
COc1cc(/C=C/c2cc(/C=C/c3ccc(O)c(OC)c3)n(-c3ccccc3)n2)ccc1O | > 100 | – | – | – | 4.72 | 22.8 | 1.52 | 1.36 | – | 2 | 0.0353 | – | – | – | 1.22 | 0.631 | 0.404 | 0.252 | – | 0.197
CNC(=O)OCc1c(COC(=O)NC)c(-c2ccc(Cl)c(Cl)c2)n2c1SCC2 | 39 | 21.5 | 17.6 | 25.5 | 31.7 | 22.4 | 50.7 | 25.1 | 22.2 | 40.5 | – | – | – | – | – | 6.23 | – | – | – | –
O=C1/C(=C/c2ccc(Br)cc2)C=C(c2ccccc2)N1CCc1ccccc1 | > 100 | 87.1 | 11 | 10.8 | 18.7 | 9.06 | 1.22 | 20.8 | 10.1 | 14.6 | 11.6 | 6.54 | 0.65 | 0.82 | 2.82 | 2.59 | 0.347 | 3.89 | 0.761 | 1.69
COc1ccc(C2=NN(C(=O)c3cc(OC)c(OC)c(OC)c3)C(c3ccc(C#N)cc3)C2)cc1OC (stereo unspecified) | > 100 | 1.24 | > 66.5 | 16.3 | > 53.2 | > 33.1 | 36.9 | 6.67 | > 34.6 | > 74 | 1.13 | 0.222 | 1.45 | 2.24 | 6.4 | 2.98 | 1.53 | 0.483 | 1.18 | 3.07
COc1ccc2c(c1)c(-c1nc(-c3cn(C)c4ncccc34)cs1)cn2CCCN1CCCCC1 | 3.77 | 3.37 | 3.06 | 3.09 | 3.66 | 19.5 | – | 3.25 | 3.23 | 3.49 | 1.81 | 1.68 | 1.69 | 1.65 | 1.92 | 4.91 | – | 1.79 | 1.81 | 1.81
COC(=O)CCCCN=Cc1c(O)c(O)c(C(C)C)c2cc(C)c(-c3c(C)cc4c(C(C)C)c(O)c(O)c(C=NCCCCC(=O)OC)c4c3O)c(O)c12 | 5.72 | 4.43 | > 32.5 | 2.43 | – | 23.8 | 9.21 | 8.75 | 4.05 | 27 | 0.917 | 0.838 | 1.15 | 0.822 | – | 1.5 | 1.22 | 1.83 | 0.58 | 1.07
CSc1ccc(C2=NN(C(C)=O)C(c3cc(C)cs3)C2)cc1 (stereo unspecified) | – | 74.9 | > 100 | > 100 | 96.1 | 63.7 | > 100 | 29.5 | > 100 | > 100 | – | 17.9 | 30.1 | 24.2 | 28.4 | 17.1 | 37.3 | 15.1 | 32.8 | 29.9
